Results as given in patent publication US20260022142A1, “MACROCYCLIC IMMUNOMODULATORS” (Bristol-Myers Squibb Company, priority 2022, published 2026).
Bridge positions count the residues as written; N and C are the ends. Square brackets hold non-standard residues; d marks the D form. Peptide text beside a SMILES is read from it. * marks the point of attachment. Bip = N[C@@H](Cc1ccc(-c2ccccc2)cc1)C(=O)O; Phe(3-Me) = Cc1cccc(C[C@H](N)C(=O)O)c1; Cha = N[C@@H](CC1CCCCC1)C(=O)O; Carboxymethyl = O=C(O)C*; Orn = NCCC[C@H](N)C(=O)O; Aun = NCCCCCCCCCCC(=O)O; Dab = NCC[C@H](N)C(=O)O; Dap = NC[C@H](N)C(=O)O

The compounds below were run against T1, PD-1/PD-L1 interaction (PE-labeled human PD-L1-Ig binding to Jurkat cell line over-expressing human PD-1) (Homo sapiens, UniProt Q15116) (assay: Jurkat-PD-1 Cell Binding High-Content Screening Assay (CBA)). Settings: Jurkat cell line over-expressing human PD-1; PE-labeled PD-L1-Ig 20 nM final; read-out: Jurkat hPD1-PDL1 IC50.
T1 construct: expressed in transfected cells; host or cells: Jurkat
Format: cell-based
In short: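 Read-out is high-content imaging of cell-bound phycoerythrin-tagged PD-L1-Ig on fixed, Hoechst-counterstained Jurkat cells that over-express human PD-1. Compound exposure lasts 2 h at 37° C before the labeled ligand (20 nM final) is added for a further hour.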

T1 sequence (Q15116 25-288): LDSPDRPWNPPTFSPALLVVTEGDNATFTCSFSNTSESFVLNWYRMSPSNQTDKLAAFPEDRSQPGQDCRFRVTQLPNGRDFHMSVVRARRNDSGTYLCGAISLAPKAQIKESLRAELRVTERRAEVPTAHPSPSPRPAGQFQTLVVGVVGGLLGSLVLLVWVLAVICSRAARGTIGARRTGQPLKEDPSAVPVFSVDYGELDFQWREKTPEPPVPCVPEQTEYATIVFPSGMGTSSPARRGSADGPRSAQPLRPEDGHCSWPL

| Structure (SMILES) | IC50 [nM] |
| --- | --- |
| Cc1cccc(C[C@@H]2NC(=O)[C@H](CC(=O)O)NC(=O)[C@H](Cc3ccc(OCC(=O)O)cc3)NC(=O)[C@H](CN)NC(=O)CSC[C@@H](C(=O)N[C@@H](CCCCN)C(=O)NCCCCCCCCCCC(=O)O)NC(=O)[C@H](CN)NC(=O)[C@H](C(C)C)NC(=O)[C@H](CC3CCCCC3)NC(=O)[C@H](CCN)NC(=O)[C@@H](CC(C)C)NC(=O)[C@H](CCCN)NC(=O)[C@H](C(C)C)NC(=O)[C@H](Cc3ccc(-c4ccccc4)cc3)NC(=O)[C@H](C(C)C)NC2=O)c1 [Compound 2534] ({CH2CO}-[Dap]Y(Carboxymethyl)D[Phe(3-Me)]V[Bip]V[Orn][dL][Dab][Cha]V[Dap]CK[Aun]-OH; thioether N-14) | 6.3 |
| Cc1cccc(C[C@@H]2NC(=O)[C@H](CC(=O)O)NC(=O)[C@H](Cc3ccc(OCC(=O)O)cc3)NC(=O)[C@H](CN)NC(=O)CSC[C@@H](C(=O)N[C@@H](CCCCN)C(=O)NCCCCCCCCCCC(=O)O)NC(=O)[C@H](CCCN)NC(=O)[C@H](C(C)C)NC(=O)[C@H](CC3CCCCC3)NC(=O)[C@H](CCN)NC(=O)[C@@H](CC(C)C)NC(=O)[C@H](CCCN)NC(=O)[C@H](C(C)C)NC(=O)[C@H](Cc3ccc(-c4ccccc4)cc3)NC(=O)[C@H](C(C)C)NC2=O)c1 [Compound 2535] ({CH2CO}-[Dap]Y(Carboxymethyl)D[Phe(3-Me)]V[Bip]V[Orn][dL][Dab][Cha]V[Orn]CK[Aun]-OH; thioether N-14) | 6.4 |
| Cc1cccc(C[C@@H]2NC(=O)[C@H](CC(=O)O)NC(=O)[C@H](Cc3ccc(OCC(=O)O)cc3)NC(=O)[C@H](CN)NC(=O)CSC[C@@H](C(=O)N[C@@H](CCCCN)C(=O)NCCCCCCCCCCC(=O)O)NC(=O)[C@H](CCCNC(=N)N)NC(=O)[C@H](C(C)C)NC(=O)[C@H](CC3CCCCC3)NC(=O)[C@H](CCN)NC(=O)[C@@H](CC(C)C)NC(=O)[C@H](CCCN)NC(=O)[C@H](C(C)C)NC(=O)[C@H](Cc3ccc(-c4ccccc4)cc3)NC(=O)[C@H](C(C)C)NC2=O)c1 [Compound 2536] ({CH2CO}-[Dap]Y(Carboxymethyl)D[Phe(3-Me)]V[Bip]V[Orn][dL][Dab][Cha]VRCK[Aun]-OH; thioether N-14) | 9.5 |
| CC(C)C[C@H]1NC(=O)[C@H](CCCN)NC(=O)[C@H](C(C)C)NC(=O)[C@H](Cc2ccc(-c3ccccc3)cc2)NC(=O)[C@H](C(C)C)NC(=O)[C@H](Cc2c[nH]c3ccccc23)NC(=O)[C@H](CC(=O)O)NC(=O)[C@H](Cc2ccc(OCC(=O)O)cc2)NC(=O)[C@H](Cc2ccc(OCC(=O)O)cc2)NC(=O)CSC[C@@H](C(=O)N[C@@H](CCCCN)C(=O)NCCCCCCCCCCC(=O)O)NC(=O)[C@H](CCCN)NC(=O)[C@H](C(C)C)NC(=O)[C@H](CC2CCCCC2)NC(=O)[C@H](CCN)NC1=O [Compound 2537] ({CH2CO}-Y(Carboxymethyl)Y(Carboxymethyl)DWV[Bip]V[Orn][dL][Dab][Cha]V[Orn]CK[Aun]-OH; thioether N-14) | 18.9 |
| CC(C)C[C@H]1NC(=O)[C@H](CCCN)NC(=O)[C@H](C(C)C)NC(=O)[C@H](Cc2ccc(-c3ccccc3)cc2)NC(=O)[C@H](C(C)C)NC(=O)[C@H](Cc2c[nH]c3ccccc23)NC(=O)[C@H](CC(=O)O)NC(=O)[C@H](Cc2ccc(OCC(=O)O)cc2)NC(=O)[C@H](Cc2ccc(OCC(=O)O)cc2)NC(=O)CSC[C@@H](C(=O)N[C@@H](CCCCN)C(=O)NCCCCCCCCCCC(=O)O)NC(=O)[C@H](CN)NC(=O)[C@H](C(C)C)NC(=O)[C@H](CC2CCCCC2)NC(=O)[C@H](CCN)NC1=O [Compound 2538] ({CH2CO}-Y(Carboxymethyl)Y(Carboxymethyl)DWV[Bip]V[Orn][dL][Dab][Cha]V[Dap]CK[Aun]-OH; thioether N-14) | 13.6 |
